Source: ChEMBL document CHEMBL4118154, “Discovery of evocalcet, a next-generation calcium-sensing receptor agonist for the treatment of hyperparathyroidism” (Bioorg Med Chem Lett, 2018)

Columns and labels:
CYP2D6 = CYP2D6 (Homo sapiens, UniProt P10635); assay: Inhibition of CYP2D6 (unknown origin); assay type: ADME
CYP3A4/5 = CYP3A4/5 (Homo sapiens, UniProt P08684+P20815); assay: Inhibition of CYP3A4/5 (unknown origin); assay type: ADME, protein assay
CYP2C9 = CYP2C9 (Homo sapiens, UniProt P11712); assay: Inhibition of CYP2C9 (unknown origin); assay type: ADME
[1] = Intrinsic clearance in rat liver microsomes assessed per protein; assay type: ADME, microsome; settings: read-out: CLH
[2] = Cmax in rat at 1 mg/kg, po; assay type: ADME, organism-based; set-up: dose 1 mg/kg, route oral; settings: in vivo
[3] = Initial plasma concentration in rat at 0.3 mg/kg, iv; assay type: ADME, organism-based
[4] = AUC (0 to infinity) in rat at 1 mg/kg, po; assay type: ADME, organism-based; set-up: dose 1 mg/kg, route oral, time infinity; settings: in vivo
[5] = molecular target: T1, Extracellular calcium-sensing receptor (Rattus norvegicus, UniProt P48442); assay: Agonist activity at CaSR in rat parathyroid cells assessed as inhibition of PTH (1 to 84 residues) production in presence of Cacl2 by ELISA; assay type: functional, cell-based
T1 sequence (P48442 whole entry): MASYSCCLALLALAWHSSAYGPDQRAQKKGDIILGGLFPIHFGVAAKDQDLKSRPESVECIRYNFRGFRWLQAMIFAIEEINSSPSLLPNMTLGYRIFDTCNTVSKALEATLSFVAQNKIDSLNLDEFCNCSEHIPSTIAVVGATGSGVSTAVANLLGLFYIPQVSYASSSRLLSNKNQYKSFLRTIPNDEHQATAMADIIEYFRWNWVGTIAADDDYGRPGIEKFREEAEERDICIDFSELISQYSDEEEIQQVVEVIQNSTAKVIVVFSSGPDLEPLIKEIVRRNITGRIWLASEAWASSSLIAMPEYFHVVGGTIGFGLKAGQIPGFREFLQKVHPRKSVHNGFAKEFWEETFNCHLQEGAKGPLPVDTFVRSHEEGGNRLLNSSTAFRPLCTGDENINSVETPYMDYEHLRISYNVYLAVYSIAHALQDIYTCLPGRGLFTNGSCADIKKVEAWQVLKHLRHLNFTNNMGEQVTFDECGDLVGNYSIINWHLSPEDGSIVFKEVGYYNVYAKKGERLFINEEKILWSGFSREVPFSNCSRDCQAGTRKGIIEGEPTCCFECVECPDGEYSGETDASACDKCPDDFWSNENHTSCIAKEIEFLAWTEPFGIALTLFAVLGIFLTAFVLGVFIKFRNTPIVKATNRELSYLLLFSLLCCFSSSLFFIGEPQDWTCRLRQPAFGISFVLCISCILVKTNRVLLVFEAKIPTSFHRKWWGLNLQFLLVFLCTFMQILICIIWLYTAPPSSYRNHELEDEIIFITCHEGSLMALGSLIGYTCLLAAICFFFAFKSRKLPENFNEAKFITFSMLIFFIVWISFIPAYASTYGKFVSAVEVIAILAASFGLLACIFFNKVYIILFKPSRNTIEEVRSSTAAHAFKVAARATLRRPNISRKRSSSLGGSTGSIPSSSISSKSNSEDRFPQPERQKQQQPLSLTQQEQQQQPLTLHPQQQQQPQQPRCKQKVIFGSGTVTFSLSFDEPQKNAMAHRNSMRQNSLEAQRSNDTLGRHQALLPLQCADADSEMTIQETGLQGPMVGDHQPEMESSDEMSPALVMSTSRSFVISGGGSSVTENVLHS

[6] = Oral bioavailability in rat at 1 mg/kg; assay type: ADME, organism-based; settings: in vivo
[7] = Volume of distribution at steady state in monkey at 0.3 mg/kg, iv; assay type: ADME, organism-based, Macaca mulatta; settings: rhesus monkey, in vivo, read-out: Vdss
CYP2E1 = CYP2E1 (Homo sapiens, UniProt P05181); assay: Inhibition of CYP2E1 (unknown origin); assay type: ADME
[8] = Initial plasma concentration in monkey at 0.3 mg/kg, iv; assay type: ADME, organism-based, Macaca mulatta; settings: rhesus monkey
[9] = Total clearance in rat at 0.3 mg/kg, iv; assay type: ADME, organism-based; settings: in vivo
[10] = AUC (0 to infinity) in monkey at 0.3 mg/kg, iv; assay type: ADME, organism-based, Macaca mulatta; set-up: dose 0.3 mg/kg, time infinity, route intravenous; settings: rhesus monkey, in vivo
CYP2C19 = CYP2C19 (Homo sapiens, UniProt P33261); assay: Inhibition of CYP2C19 (unknown origin); assay type: ADME
[11] = Half life in monkey at 1 mg/kg, po; assay type: ADME, organism-based, Macaca mulatta; settings: rhesus monkey, in vivo
[12] = Tmax in monkey at 1 mg/kg, po; assay type: ADME, organism-based, Macaca mulatta; settings: rhesus monkey, in vivo
[13] = Cmax in monkey at 1 mg/kg, po; assay type: ADME, organism-based, Macaca mulatta; set-up: dose 1 mg/kg, route oral; settings: rhesus monkey, in vivo
[14] = Half life in monkey at 0.3 mg/kg, iv; assay type: ADME, organism-based, Macaca mulatta; settings: rhesus monkey, in vivo
CYP2C8 = molecular target: T2, CYP2C8 (Homo sapiens, UniProt P10632); assay: Inhibition of CYP2C8 (unknown origin); assay type: ADME
T2 sequence (P10632 whole entry): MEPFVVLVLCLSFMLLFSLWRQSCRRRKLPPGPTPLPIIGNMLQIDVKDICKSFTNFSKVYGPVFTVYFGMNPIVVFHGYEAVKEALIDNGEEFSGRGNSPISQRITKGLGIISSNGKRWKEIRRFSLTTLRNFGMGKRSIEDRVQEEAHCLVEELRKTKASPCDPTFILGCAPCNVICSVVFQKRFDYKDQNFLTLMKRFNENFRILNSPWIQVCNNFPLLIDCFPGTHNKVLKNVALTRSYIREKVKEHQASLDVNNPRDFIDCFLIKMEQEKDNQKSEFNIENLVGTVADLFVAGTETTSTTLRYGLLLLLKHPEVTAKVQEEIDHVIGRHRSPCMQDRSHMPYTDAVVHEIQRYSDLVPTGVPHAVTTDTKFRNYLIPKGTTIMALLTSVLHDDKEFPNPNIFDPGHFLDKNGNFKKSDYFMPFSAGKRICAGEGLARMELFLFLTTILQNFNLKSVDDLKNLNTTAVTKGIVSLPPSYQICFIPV

[15] = Total clearance in monkey at 0.3 mg/kg, iv; assay type: ADME, organism-based, Macaca mulatta; settings: rhesus monkey, in vivo
[16] = AUC (0 to infinity) in rat at 0.3 mg/kg, iv; assay type: ADME, organism-based; set-up: dose 0.3 mg/kg, route intravenous, time infinity; settings: in vivo
[17] = Oral bioavailability in monkey at 1 mg/kg; assay type: ADME, organism-based, Macaca mulatta; settings: rhesus monkey, in vivo
[18] = AUC (0 to infinity) in monkey at 1 mg/kg, po; assay type: ADME, organism-based, Macaca mulatta; set-up: dose 1 mg/kg, time infinity, route oral; settings: rhesus monkey, in vivo

Chain of CYP2C19 (P33261 whole entry): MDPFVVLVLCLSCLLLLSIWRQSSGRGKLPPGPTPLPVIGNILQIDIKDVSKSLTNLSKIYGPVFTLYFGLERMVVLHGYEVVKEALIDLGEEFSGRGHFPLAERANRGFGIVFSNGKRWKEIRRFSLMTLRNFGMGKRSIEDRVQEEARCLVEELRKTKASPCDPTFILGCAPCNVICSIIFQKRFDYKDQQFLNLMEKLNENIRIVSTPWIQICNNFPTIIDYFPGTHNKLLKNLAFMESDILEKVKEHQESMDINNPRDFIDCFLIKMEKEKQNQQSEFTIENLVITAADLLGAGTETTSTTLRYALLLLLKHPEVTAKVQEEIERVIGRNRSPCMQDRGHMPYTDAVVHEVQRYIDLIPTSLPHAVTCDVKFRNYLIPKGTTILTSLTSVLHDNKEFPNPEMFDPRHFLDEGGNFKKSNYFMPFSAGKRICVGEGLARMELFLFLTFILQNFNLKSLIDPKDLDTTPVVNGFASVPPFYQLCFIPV
Chain of CYP2C9 (P11712 whole entry): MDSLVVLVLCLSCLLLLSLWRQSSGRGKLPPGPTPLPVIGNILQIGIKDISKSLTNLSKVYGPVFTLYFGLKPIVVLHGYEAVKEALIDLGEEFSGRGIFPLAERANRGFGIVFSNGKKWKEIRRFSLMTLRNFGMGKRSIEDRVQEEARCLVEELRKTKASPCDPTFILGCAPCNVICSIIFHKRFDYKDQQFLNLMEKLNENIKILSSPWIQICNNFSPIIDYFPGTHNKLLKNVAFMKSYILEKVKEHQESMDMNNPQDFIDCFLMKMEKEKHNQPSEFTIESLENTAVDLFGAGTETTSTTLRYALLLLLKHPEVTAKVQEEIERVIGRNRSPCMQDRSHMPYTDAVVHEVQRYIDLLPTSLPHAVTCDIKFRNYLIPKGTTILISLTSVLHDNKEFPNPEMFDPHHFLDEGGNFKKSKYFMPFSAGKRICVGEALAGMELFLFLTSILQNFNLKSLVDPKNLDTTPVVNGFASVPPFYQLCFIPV
Chain of CYP2E1 (P05181 whole entry): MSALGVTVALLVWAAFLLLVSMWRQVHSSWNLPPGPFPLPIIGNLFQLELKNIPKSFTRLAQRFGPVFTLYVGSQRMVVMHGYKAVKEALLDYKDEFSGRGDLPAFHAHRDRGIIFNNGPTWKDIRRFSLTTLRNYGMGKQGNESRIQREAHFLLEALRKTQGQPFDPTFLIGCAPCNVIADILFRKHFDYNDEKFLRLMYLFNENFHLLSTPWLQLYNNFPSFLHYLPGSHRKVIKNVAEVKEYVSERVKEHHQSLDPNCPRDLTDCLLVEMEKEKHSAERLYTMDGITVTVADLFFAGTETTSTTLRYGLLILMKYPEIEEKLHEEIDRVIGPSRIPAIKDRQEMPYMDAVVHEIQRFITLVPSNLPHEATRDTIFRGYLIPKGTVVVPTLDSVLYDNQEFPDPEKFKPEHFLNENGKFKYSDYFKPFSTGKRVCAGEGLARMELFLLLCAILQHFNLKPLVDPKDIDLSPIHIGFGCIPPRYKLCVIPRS
Chain of CYP2D6 (P10635 whole entry): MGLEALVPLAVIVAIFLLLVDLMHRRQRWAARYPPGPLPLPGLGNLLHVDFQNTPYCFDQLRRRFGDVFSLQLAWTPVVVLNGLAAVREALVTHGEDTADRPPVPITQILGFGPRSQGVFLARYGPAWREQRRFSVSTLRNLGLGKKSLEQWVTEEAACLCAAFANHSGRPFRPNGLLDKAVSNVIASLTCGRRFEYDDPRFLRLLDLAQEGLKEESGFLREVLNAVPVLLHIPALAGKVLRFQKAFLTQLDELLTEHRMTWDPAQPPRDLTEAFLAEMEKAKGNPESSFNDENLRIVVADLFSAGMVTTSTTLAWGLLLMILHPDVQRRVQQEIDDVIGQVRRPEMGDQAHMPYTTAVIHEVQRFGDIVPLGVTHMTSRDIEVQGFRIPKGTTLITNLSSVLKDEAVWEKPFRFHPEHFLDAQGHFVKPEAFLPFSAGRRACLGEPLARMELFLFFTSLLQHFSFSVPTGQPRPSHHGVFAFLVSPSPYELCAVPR

- IC50 (CYP2D6): > 50 µM
- IC50 (CYP3A4/5): > 50 µM
- IC50 (CYP2C9): > 50 µM
- microsomal CLint [1]: 34 µL/min/mg
- Cmax [2]: 2190 ng/mL
- C0 [3]: 1080 ng/mL
- AUC(0-inf) [4]: 8440 ng·h/mL
- IC50 [5]: 0.0308 µM
- bioavailability [6]: 84.2%
- Vd [7]: 0.716 L/kg
- IC50 (CYP2E1): > 50 µM
- C0 [8]: 1630 ng/mL
- clearance [9]: 1.67 mL/min/kg
- AUC(0-inf) [10]: 987 ng·h/mL
- IC50 (CYP2C19): > 50 µM
- half-life [11]: 8.94 h
- Tmax [12]: 1.38 h
- Cmax [13]: 746 ng/mL
- half-life [14]: 10.2 h
- IC50 (CYP2C8): > 50 µM
- clearance [15]: 5.37 mL/min/kg
- AUC(0-inf) [16]: 3010 ng·h/mL
- bioavailability [17]: 55.8%
- AUC(0-inf) [18]: 1660 ng·h/mL
SMILES: C[C@@H](N[C@H]1CCN(c2ccc(CC(=O)O)cc2)C1)c1cccc2ccccc12.Cl.Cl
